# Earlier results as cited in US6515198B2, “Use of purinergic receptor modulators and related reagents” (Syntex (U.S.A.) LLC, priority 2000, dated 2003).
# Tested on: bladder sensory afferents
# Details: agents capable of desensitizing P2X3 receptor subunit responses
row,SMILES,effect on the activity of bladder sensory afferents
1,Cc1ccc(C(=O)Nc2ccc(S(=O)(=O)O)c3cc(S(=O)(=O)O)cc(S(=O)(=O)O)c23)cc1NC(=O)c1cccc(NC(=O)Nc2cccc(C(=O)Nc3cc(C(=O)Nc4ccc(S(=O)(=O)O)c5cc(S(=O)(=O)O)cc(S(=O)(=O)O)c45)ccc3C)c2)c1 [suramin],decrease the activity of bladder sensory afferents
2,Nc1ncnc2c1ncn2[C@@H]1O[C@H](COP(=O)(O)CP(=O)(O)OP(=O)(O)O)[C@@H](O)[C@H]1O [αβ-ATP],decrease the activity of bladder sensory afferents
